Assay results: patent publication US9353156B2, “Oligopeptide compounds and uses thereof” (Cytovation AS, priority 2010, dated 2016)

How the values were obtained:
[1] = tested on: 142 cells, HFF1 cells, 143 carcinoma cells, HOS sarcoma cell line (FIG. 5); experiment: LIVE/DEAD kit, fluorescence microscopy of monolayers (FIG. 5, text); assay type: cell-based; details: 10 μg/ml of peptide
Text: The LIVE/DEAD® Viability/Cytotoxicity kit employs a fluorescent dye to assess mammalian cell viability. Calcein AM and ethidium homodimer-1 (EthD-1) are found to be optimal dyes for this purpose. […] cells are distinguished from dead cells by the presence of intracellular esterase activity, determined by enzymatic conversion of non-fluorescen calcein AM to intensely fluorescent calcein. Calcein, which is a polyanionic dye, is well retained inside living cells producing an intense uniform green fluorescence. EthD-1 is excluded by intact membranes of viable cells, but it will enter cells with damaged cell membrane and bind to nucleic acids, producing a bright red fluorescence in dead cells. The protocol for using the live/dead kit is supplied by the manufacturer.
To quantify the cytotoxic action of Peptide 1, 20 000 cells were placed in 24 well multiwell dishes. […] After 1-3-6 hrs the cellular viability was assessed using the Molecular Probes LIVE/DEAD kit. […]
The cells were then observed using an inverted fluorescence microscope (Nikon Eclipse 2000E, Tokyo, Japan) equipped with FITC (green fluorescence) and TRITC (red fluorescence) filter optics. […] The proportion of viable cells (cells with green fluorescence) and the proportion of dead cells (red fluorescence) where then assessed by counting 100 cells. […]

[2] = tested on: normal human forskin fibroblasts (HFF1); details: 20 μg/ml, exposure for 90 minutes
Method: MTT is a yellowish solution and is converted to water-insoluble MTT-formazan of dark blue colour by mitochondrial dehydrogenases of living cells. The blue crystals are solubilized with acidifies isopropanol and the intensity is measured colorimetrically at a wavelength of 570 nm (protocol for the MTT assay was used according to the manufacturer's instructions). Using a MTT cell viability assay, a comparison was made between normal human forskin fibroblasts (HFF1) and three cancer cell lines T986 (neuroblastoma cells), GaMG (glioblastoma), and A172 (glioblastoma).

Ac-YGRKKRRQRRRGKTLRVAKAIYKRYIE-NH2 [Peptide 1]
cytotoxic action (red cells) [1]: slight cytotoxic action | surviving fraction [2]: 58%
